Five compounds from ChEMBL document CHEMBL4334552, “Discovery of BMS-986260, a Potent, Selective, and Orally Bioavailable TGFβR1 Inhibitor as an Immuno-oncology Agent” (ACS Med Chem Lett, 2020) can be followed below.

A word on the IC50: it is the midpoint of a concentration-inhibition curve. For orientation: solubility means the concentration that dissolves in the medium under given conditions. Read a high solubility as a readily soluble substance. One may read the AUC(0-t) as the area under the concentration-time curve up to a stated or last time point. A higher AUC(0-t) goes with high exposure.

≈ marks a conversion by molar mass, not a printed value.

Data set [1] can be described thus: Metabolic stability of compound in mouse liver microsomes assessed as compound remaining. The class given is ADME, Microsome. On the technique in general: Microsomes from liver hold many membrane-bound enzymes, among them those of drug oxidation.
Data set [2] is described as follows: Metabolic stability of compound in human liver microsomes assessed as compound remaining. Format: ADME, Microsome.
Data set [3] concerns the target TGF-beta receptor type-2 (Homo sapiens, UniProt P37173). Put plainly: Inhibition of wild type His-tagged TGFBR2 kinase domain (unknown origin) incubated for 1 hr by HTRF analysis.
The nature of data set [4]: Solubility of compound in crystalline form at pH 6.5. Format: physicochemical.
A short description of data set [5]: Metabolic stability of compound in rat liver microsomes assessed as compound remaining after 10 mins. Format: ADME, Microsome. Conditions: read-out: Stability.
Data set [6] deals with TGF-beta receptor type-1 (Homo sapiens, UniProt P36897, T204D). The data set is described as follows: Inhibition of His-tagged TGFBR1 kinase domain T204D mutant (unknown origin) incubated for 1 hr by HTRF analysis. For orientation: Time-resolved FRET reads energy transfer from a long-lived donor to a nearby acceptor.
Sequence of TGF-beta receptor type-1 (Homo sapiens, UniProt P36897, T204D) (P36897 34-503 T204D limits assumed): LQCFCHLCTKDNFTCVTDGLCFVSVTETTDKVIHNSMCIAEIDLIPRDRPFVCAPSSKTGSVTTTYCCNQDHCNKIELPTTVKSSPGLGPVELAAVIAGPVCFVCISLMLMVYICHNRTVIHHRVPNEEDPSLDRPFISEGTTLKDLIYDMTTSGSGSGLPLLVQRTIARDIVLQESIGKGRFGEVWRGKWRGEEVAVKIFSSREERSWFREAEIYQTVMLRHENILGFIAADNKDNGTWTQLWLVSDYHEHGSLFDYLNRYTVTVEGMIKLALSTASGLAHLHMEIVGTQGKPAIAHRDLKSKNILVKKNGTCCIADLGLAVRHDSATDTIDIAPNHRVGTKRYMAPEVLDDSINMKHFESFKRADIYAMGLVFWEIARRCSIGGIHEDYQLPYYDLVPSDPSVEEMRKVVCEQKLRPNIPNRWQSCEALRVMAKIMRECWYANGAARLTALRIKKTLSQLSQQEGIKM
The target in data set [7] is T1, TGF-beta receptor type-1 (Homo sapiens, UniProt P36897).
T1 sequence (P36897 whole entry): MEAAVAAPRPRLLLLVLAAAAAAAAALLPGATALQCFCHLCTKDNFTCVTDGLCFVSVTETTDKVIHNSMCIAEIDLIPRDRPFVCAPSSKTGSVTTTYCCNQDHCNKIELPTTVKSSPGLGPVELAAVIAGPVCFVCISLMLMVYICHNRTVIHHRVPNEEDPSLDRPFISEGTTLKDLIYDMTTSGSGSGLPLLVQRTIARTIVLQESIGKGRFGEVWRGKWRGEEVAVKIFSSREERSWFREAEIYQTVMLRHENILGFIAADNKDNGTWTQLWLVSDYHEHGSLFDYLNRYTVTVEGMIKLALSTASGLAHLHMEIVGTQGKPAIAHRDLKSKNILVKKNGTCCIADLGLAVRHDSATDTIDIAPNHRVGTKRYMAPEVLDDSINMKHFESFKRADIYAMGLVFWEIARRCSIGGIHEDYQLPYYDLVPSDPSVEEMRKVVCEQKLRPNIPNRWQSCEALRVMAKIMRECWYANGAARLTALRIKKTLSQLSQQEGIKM
Put plainly: Inhibition of TGFBR1 in TGFbeta-stimulated human NHLF cells assessed as reduction in SMAD2 nuclear translocation.

Data set [8] is described as follows: AUC (0 to 24 hrs) in mouse at 10 mg/kg, po. Set-up: dose 10 mg/kg, time < 24 hr, route oral. Format: ADME, organism-based. Particulars: in vivo.
The nature of data set [9]: Aqueous solubility of the compound at pH 6.5. Format: physicochemical. Conditions: buffer.

Sequence of TGF-beta receptor type-2 (P37173 whole entry, the tested form may be a part): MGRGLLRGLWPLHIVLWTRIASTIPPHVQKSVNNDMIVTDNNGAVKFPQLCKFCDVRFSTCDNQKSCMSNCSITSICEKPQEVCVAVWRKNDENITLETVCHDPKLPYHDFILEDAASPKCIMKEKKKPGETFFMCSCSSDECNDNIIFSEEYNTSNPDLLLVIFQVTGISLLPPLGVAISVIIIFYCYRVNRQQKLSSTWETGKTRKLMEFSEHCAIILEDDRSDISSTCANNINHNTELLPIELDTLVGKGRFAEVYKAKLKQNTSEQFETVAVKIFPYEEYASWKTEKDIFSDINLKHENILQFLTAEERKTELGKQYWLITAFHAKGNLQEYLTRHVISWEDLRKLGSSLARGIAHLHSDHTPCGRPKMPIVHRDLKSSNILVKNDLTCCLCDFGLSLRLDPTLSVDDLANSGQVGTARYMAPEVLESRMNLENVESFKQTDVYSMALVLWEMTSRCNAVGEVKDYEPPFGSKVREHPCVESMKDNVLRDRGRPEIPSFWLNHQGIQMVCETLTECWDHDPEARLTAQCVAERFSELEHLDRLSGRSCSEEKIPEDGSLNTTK

For the compound `N#Cc1cnc2ccc(-c3c(-c4ccc(F)cc4)ncn3CCO)nn12`, the Stability amounted to 86% in data set [1] and 93% in data set [2]. Also, the IC50 in data set [3] was > 15000 nM. In data set [4], this compound came in with a solubility of 138 µg/mL (≈ 396 µM). Also, in data set [5], the remaining at 10 min was 100%.

As for `Cc1cccc(-c2ncn(CC(F)F)c2-c2ccc3nccn3c2)n1`, the figures for the IC50 in data set [6] and in data set [7] were 1 to 10 nM and 90 nM, respectively. Also, the values for the Stability in [1] and in data set [2] were 54% and 78%, respectively. Moreover, the remaining at 10 min in [5] is 31%.

Take `Cc1cccc(-c2ncn(CC(F)F)c2-c2ccc3ncc(C(N)=O)n3c2)n1`: the Stability in data set [1] was 65%; in data set [2], 97%. Also, in data set [8], the AUC(0-t) at 24 h turned out to be 2 µM·h. The remaining at 10 min in data set [5] was 74%.

For the compound `N#Cc1cnc2ccc(-c3c(-c4ccc(F)cc4)ncn3CC(F)F)nn12`, the figures for the Stability in [1] and in data set [2] were 89% and 75%, respectively. Also, the IC50 in [3] was > 15000 nM. In addition, in [5], the remaining at 10 min is 96%. Besides, in data set [9], the solubility entry is recorded as “Insoluble”.

In the case of `NC(=O)c1cnc2ccc(-c3c(-c4ccc(F)cc4)ncn3CC(F)F)nn12`, the Stability in [1] and in data set [2] was 100% each time. Moreover, the AUC(0-t) at 24 h in data set [8] came to 28 µM·h. For the same compound, in data set [5], the remaining at 10 min was 100%.
